This is an account of results in patent publication US9957264B2 (Merck Sharp & Dohme Corp., priority 2013, dated 2018).

One may read the IC50 as the concentration needed to halve the response being measured.

The target in assay [1] is JAK1 (recombinant purified GST-tagged catalytic domain) (Homo sapiens (Human), UniProt P23458). The assay can be described thus: Jak Biochemical HTRF Assay (JAK1). To be noted: [ATP] 31.8 μM. In a few lines:
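HTRF kinase format: compounds pre-equilibrated with recombinant GST-tagged JAK1 or JAK2 catalytic domain, then ATP started a 120 min room-temperature reaction on a common peptide substrate. Phosphopeptide detected via Eu-pY20/streptavidin-Dylight 650 after EDTA quench; percent inhibition versus log concentration fitted (4-parameter) to give IC50.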
Background: TR-FRET usually uses a lanthanide donor and a delayed reading to cut background.

Assay [2] has as its target JAK2 (recombinant purified GST-tagged catalytic domain) (Homo sapiens (Human), UniProt O60674). The assay can be described thus: Jak Biochemical HTRF Assay (JAK2). To be noted: [ATP] 8.5 μM.

A value given as a limit tells only on which side of the number the result lay.

JAK1 (recombinant purified GST-tagged catalytic domain), sequence (P23458 875-1153): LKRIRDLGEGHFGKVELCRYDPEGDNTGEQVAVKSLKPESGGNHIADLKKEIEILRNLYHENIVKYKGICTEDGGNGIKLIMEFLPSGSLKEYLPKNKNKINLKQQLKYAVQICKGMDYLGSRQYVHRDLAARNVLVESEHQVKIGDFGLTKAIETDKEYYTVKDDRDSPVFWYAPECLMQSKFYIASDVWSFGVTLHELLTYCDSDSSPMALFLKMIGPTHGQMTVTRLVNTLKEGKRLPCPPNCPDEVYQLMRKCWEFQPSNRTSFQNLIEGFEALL
JAK2 (recombinant purified GST-tagged catalytic domain), sequence (O60674 849-1124): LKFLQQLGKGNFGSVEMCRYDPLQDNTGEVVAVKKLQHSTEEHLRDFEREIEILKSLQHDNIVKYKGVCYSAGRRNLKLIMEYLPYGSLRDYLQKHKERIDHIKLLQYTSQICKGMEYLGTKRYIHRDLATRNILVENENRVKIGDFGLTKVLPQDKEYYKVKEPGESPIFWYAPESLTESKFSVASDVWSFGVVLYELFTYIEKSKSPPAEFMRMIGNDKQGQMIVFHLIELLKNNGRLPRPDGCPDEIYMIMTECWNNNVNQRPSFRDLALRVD

`CC(C)(C)NC(c1ccc(Nc2nn([C@]3(CC#N)CC[C@@H](C(=O)OC(C)(C)C)OC3)c3cc[nH]c(=O)c23)cc1)C(F)(F)F` (single isomer, unassigned) [Example 5-194, (2S,5S)-tert-butyl 5-(3-((4-((R or S)-1-(tert-butylamino)-2,2,2-trifluoroethyl)phenyl)amino)-4-oxo-4,5-dihydro-1H-pyrazolo [4,3-c]pyridin-1-yl)-5-(cyanomethyl)tetrahydro-2H-pyran-2-carboxylate]: the IC50 in assay [1] was determined as 0.52 nM; in assay [2] it was 0.82 nM.
In the same order, the values of `CC(C)(C)OC(=O)N1CCC(CC#N)(n2nc(Nc3ccc([C@@]4(C(F)(F)F)CCCCN4)cc3)c3c(=O)[nH]ccc32)CC1` (single isomer, unassigned) [Example 21-17, (R or S)-tert-butyl 4-(cyanomethyl)-4-(4-oxo-3-(4-(2-(trifluoromethyl)piperidin-2-yl)phenylamino)-4,5-dihydropyrazolo[4,3-c]pyridin-1-yl)piperidine-1-carboxylate] are 0.63 nM and 0.58 nM.
In the same order, the values of `CN(C(C)(C)C)S(=O)(=O)c1ccc(Nc2nn([C@]3(CC#N)CCCOC3)c3cc[nH]c(=O)c23)cc1` [Example 5-182, N-tert-butyl-4-({1-[(3S)-3-(cyanomethyl)tetrahydro-2H-pyran-3-yl]-4-oxo-4,5-dihydro-1H-pyrazolo[4,3-c]pyridin-3-yl}amino)-N-methylbenzenesulfonamide] are 0.25 nM and 0.57 nM.
The corresponding values for `N#CC[C@@]1(n2nc(Nc3ccc(C#N)cc3)c3c(=O)[nH]ccc32)CCOC1` (single isomer, unassigned) [Example 5-239, 4-({1-[(3R or 3S)-3-(cyanomethyl)tetrahydrofuran-3-yl]-4-oxo-4,5-dihydro-1H-pyrazolo[4,3-c]pyridin-3-yl}amino)benzonitrile] are 2.29 nM and 16.7 nM.
`CC(C)c1ccc(CN2CCC(CC#N)(n3nc(Nc4ccc(S(=O)(=O)N(C)C)cc4)c4c(=O)[nH]ccc43)CC2)cc1` [Example 8-4, 4-[(1-{4-(cyanomethyl)-1[4-(1-methylethyl)benzyl]piperidin-4-yl}-4-oxo-4,5-dihydro-1H-pyrazolo[4,3-c]pyridin-3-yl)amino]-N,N-dimethylbenzenesulfonamide]: the half-maximal inhibitory concentration (IC50) in assay [1] is 6.9 nM; in assay [2], 33.1 nM.
In the same order, the values of `CC(C)(C)N[C@H](c1ccc(Nc2nn([C@]3(CC#N)CCOC[C@@H]3F)c3cc[nH]c(=O)c23)cc1)C(F)(F)F` (single isomer, unassigned) [Example 5-269, 2-((3R,4R or 3S,4S)-4-(3-((4-((R or S)-1-(tert-butylamino)-2,2,2-trifluoroethyl)phenyl)amino)-4-oxo-4,5-dihydro-1H-pyrazolo[4,3-c]pyridin-1-yl)-3-fluorotetrahydro-2H-pyran-4-yl)acetonitrile] are 0.11 nM and 0.09 nM.
In the same order, the values of `CN(C)S(=O)(=O)c1ccc(Nc2nn([C@@]3(CC#N)CCCOC3)c3cc[nH]c(=O)c23)cc1` [Example 5-29, (R)-4-((1-(3-(cyanomethyl)tetrahydro-2H-pyran-3-yl)-4-oxo-4,5-dihydro-1H-pyrazolo[4,3-c]pyridin-3-yl)amino)-N,N-dimethyl benzenesulfonamide] are 13.5 nM and 27.7 nM.
In the same order, the values of `CC(C)(C)OC(=O)[C@@H]1CC[C@@](CC#N)(n2nc(Nc3ccc(S(C)(=O)=O)cc3)c3c(=O)[nH]ccc32)CO1` [Example 5-39, (2S,5S)-tert-butyl 5-(cyanomethyl)-5-(3-((4-(methylsulfonyl)phenyl)amino)-4-oxo-4,5-dihydro-1H-pyrazolo[4,3-c]pyridin-1-yl)tetrahydro-2H-pyran-2-carboxylate] are 0.06 nM and 0.43 nM.
In the case of `Cc1cc(Nc2nn(C3(CC#N)CCN(C(=O)OC(C)(C)C)CC3)c3cc[nH]c(=O)c23)ccc1C(=O)N1CCOCC1` [Example 21-20, tert-butyl 4-(cyanomethyl)-4-(3-(3-methyl-4-(morpholine-4-carbonyl)phenylamino)-4-oxo-4,5-dihydropyrazolo[4,3-c]pyridin-1-yl)piperidine-1-carboxylate], the IC50 came out at 0.18 nM in assay [1] and 0.17 nM in assay [2].
The corresponding values for `CC(C)(C)OC(=O)N1CCC(CC#N)(n2nc(Nc3ccc4c(c3)CN(CC(F)(F)F)C4=O)c3c(=O)[nH]ccc32)CC1` [Example 5-5, tert-butyl 4-(cyanomethyl)-4-(4-oxo-3-{[1-oxo-2-(2,2,2-trifluoroethyl)-2,3-dihydro-1H-isoindol-5-yl]amino}-4,5-dihydro-1H-pyrazolo[4,3-c]pyridin-1-yl)piperidine-1-carboxylate] are 0.28 nM and 0.31 nM.
`Cc1cc(Nc2nn([C@]3(CC#N)CC[C@@H](C(=O)OC(C)(C)C)OC3)c3cc[nH]c(=O)c23)ccc1C(=O)N1CCOC(C)(C)C1` [Example 5-220, (2S,5S)-tert-butyl 5-(cyanomethyl)-5-(3-((4-(2,2-dimethylmorpholine-4-carbonyl)-3-methylphenyl)amino)-4-oxo-4,5-dihydro-1H-pyrazolo[4,3-c]pyridin-1-yl)tetrahydro-2H-pyran-2-carboxylate]: the figures for the IC50 in assay [1] and in assay [2] were 0.14 nM and 0.19 nM, respectively.
In the same order, the values of `CS(=O)(=O)c1ccc(Nc2nn([C@]3(CC#N)CCCOC3)c3cc[nH]c(=O)c23)cc1` [Example 5-31, (S)-2-(3-(3-((4-(methylsulfonyl)phenyl)amino)-4-oxo-4,5-dihydro-1H-pyrazolo [4,3-c]pyridin-1-yl)tetrahydro-2H-pyran-3-yl)acetonitrile] are 0.26 nM and 1.64 nM.
For the molecule `CN(C)S(=O)(=O)c1ccc(Nc2nn(C3(CC#N)CCN(Cc4cccc(F)c4)CC3)c3cc[nH]c(=O)c23)cc1` [Example 8-8, 4-({1-[4-(cyanomethyl)-1-(3-fluorobenzyl)piperidin-4-yl]-4-oxo-4,5-dihydro-1H-pyrazolo[4,3-c]pyridin-3-yl}amino)-N,N-dimethylbenzenesulfonamide], the IC50 in assay [1] worked out at 0.29 nM; in assay [2], 0.52 nM.
The corresponding values for `CC(C)(C)OC(=O)[C@@H]1CC[C@@](CC#N)(n2nc(Nc3ccc4c(c3)CC(C)(C)C4(O)C(F)(F)F)c3c(=O)[nH]ccc32)CO1` (single isomer, unassigned) [Example 5-165, (2S,5S)-tert-butyl 5-(cyanomethyl)-5-(3-(((S or R)-1-hydroxy-2,2-dimethyl-1-(trifluoromethyl)-2,3-dihydro-1H-inden-5-yl)amino)-4-oxo-4,5-dihydro-1H-pyrazolo[4,3-c]pyridin-1-yl)tetrahydro-2H-pyran-2-carboxylate] are 0.46 nM and 1 nM.
Turning to `CN(C)S(=O)(=O)c1ccc(Nc2nn(C3(CC#N)CCN(C(=O)CCC#N)CC3)c3cc[nH]c(=O)c23)cc1` [Example 9-22, 4-({1-[4-(cyanomethyl)-1-(3-cyanopropanoyl)piperidin-4-yl]-4-oxo-4,5-dihydro-1H-pyrazolo[4,3-c]pyridin-3-yl}amino)-N,N-dimethylbenzenesulfonamide], the IC50 came to 0.09 nM in assay [1] and 0.21 nM in assay [2].
For `N#CCC1(n2nc(Nc3ccc(C#N)cc3)c3c(=O)[nH]ccc32)CCCC1` [Example 5-124, 4-((1-(1-(cyanomethyl)cyclopentyl)-4-oxo-4,5-dihydro-1H-pyrazolo[4,3-c]pyridin-3-yl)amino) benzonitrile], the figures for the IC50 in assay [1] and in assay [2] were 0.58 nM and 3.69 nM, respectively.
In the same order, the values of `CC(C)(C)OC(=O)N1CCC(CC#N)(n2nc(Nc3cc(Cn4ccnn4)cc(Cn4nccn4)c3)c3c(=O)[nH]ccc32)CC1` [Example 5-64, tert-butyl 4-(3-(3-((1H-1,2,3-triazol-1-yl)methyl)-5-((2H-1,2,3-triazol-2-yl)methyl)phenylamino)-4-oxo-4,5-dihydropyrazolo [4,3-c]pyridin-1-yl)-4-(cyanomethyl)piperidine-1-carboxylate] are 0.57 nM and 0.46 nM.
As for `CN(C)S(=O)(=O)c1ccc(Nc2nn(C3(CC#N)CCN(C(=O)OC(C)(C)C)CC3)c3cc[nH]c(=O)c23)cc1` [Example 5-1, tert-butyl 4-(cyanomethyl)-4-(3-((4-(N,N-dimethylsulfamoyl)phenyl)amino)-4-oxo-4,5-dihydro-1H-pyrazolo[4,3-c]pyridin-1-yl)piperidine-1-carboxylate], the 50% inhibitory concentration (IC50) in assay [1] was determined as 0.22 nM; in assay [2], 0.28 nM.
In the same order, the values of `CC(C)Oc1ccc(CN2CCC(CC#N)(n3nc(Nc4ccc(S(=O)(=O)N(C)C)cc4)c4c(=O)[nH]ccc43)CC2)cc1` [Example 8-6, 4-[(1-{4-(cyanomethyl)-1-[4-(1methylethoxy)benzyl]piperidin-4-yl}-4-oxo-4,5-dihydro-1H-pyrazolo[4,3-c]pyridin-3-yl)amino]-N,N-dimethylbenzenesulfonamide] are 1.94 nM and 12.4 nM.
Turning to `N#CC[C@]1(n2nc(Nc3ccc(OC(F)(F)F)cc3)c3c(=O)[nH]ccc32)CC[C@@H](NC2CCCCC2)CC1` [Example 18-20, Cis 2-(4-(cyclohexylamino)-1-(4-oxo-3-((4-(trifluoromethoxy)phenyl)amino)-4,5-dihydro-1H-pyrazolo[4,3-c]pyridin-1-yl)cyclohexyl)acetonitrile], the IC50 in assay [1] was 52.2 nM; in assay [2] it was greater than 1500 nM.
As to `CC(C)(C)N1Cc2cc(Nc3nn([C@@]4(CC#N)CCOC[C@H]4F)c4cc[nH]c(=O)c34)ccc2S1(=O)=O` (single isomer, unassigned) [Example 5-255, 2-((3S,4S or 3R,4R)-4-(3-((2-(tert-butyl)-1,1-dioxido-2,3-dihydrobenzo[d]isothiazol-5-yl)amino)-4-oxo-4,5-dihydro-1H-pyrazolo[4,3-c]pyridin-1-yl)-3-fluorotetrahydro-2H-pyran-4-yl)acetonitrile], the IC50 in assay [1] is 0.14 nM; in assay [2] it was 3.32 nM.
